According to ChEMBL document CHEMBL1201862, “PubChem BioAssay data set” (2004):
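48-hour exposure; five concentrations; linearly interpolated endpoints. At the GI50, growth is halved.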 Activity calls are given as the source filed them. Rule as the data show it: active = GI50 up to about 1.1 µM and inactive = higher.

Tests used:
Experiment in all cases: inhibition of tumour cell growth, NCI panel, 48 h
786-0 = system: 786-0
A498 = system: A498
A549 = system: A549
ACHN = system: ACHN
BT-549 = system: BT-549
CAKI-1 = system: CAKI-1
CCRF-CEM = system: CCRF-CEM
COLO 205 = system: COLO 205
DU-145 = system: DU-145
EKVX = system: EKVX
HCC 2998 = system: HCC 2998
HCT-116 = system: HCT-116
HCT-15 = system: HCT-15
HL-60 = system: HL-60
HOP-62 = system: HOP-62
HOP-92 = system: HOP-92
HT-29 = system: HT-29
IGROV-1 = system: IGROV-1
K562 = system: K562
KM12 = system: KM12
LOX IMVI = system: LOX IMVI
M14 = system: M14
MCF7 = system: MCF7
MDA-MB-231 = system: MDA-MB-231
MDA-MB-435 = system: MDA-MB-435
MDA-N = system: MDA-N
MOLT-4 = system: MOLT-4
Malme-3M = system: Malme-3M
NCI-H226 = system: NCI-H226
NCI-H23 = system: NCI-H23
NCI-H460 = system: NCI-H460
NCI-H522 = system: NCI-H522
NCI/ADR-RES = system: NCI/ADR-RES
OVCAR-3 = system: OVCAR-3
OVCAR-4 = system: OVCAR-4
OVCAR-5 = system: OVCAR-5
OVCAR-8 = system: OVCAR-8
PC-3 = system: PC-3
RPMI-8226 = system: RPMI-8226
RXF 393 = system: RXF 393
SF-268 = system: SF-268
SF-295 = system: SF-295
SF-539 = system: SF-539
SK-MEL-28 = system: SK-MEL-28
SK-MEL-2 = system: SK-MEL-2
SK-MEL-5 = system: SK-MEL-5
SN12C = system: SN12C
SNB-19 = system: SNB-19
SNB-75 = system: SNB-75
SR = system: SR
SW-620 = system: SW-620
T47D = system: T47D
TK-10 = system: TK-10
U-251 = system: U-251
UACC-257 = system: UACC-257
UACC-62 = system: UACC-62
UO-31 = system: UO-31
SK-OV-3 = system: SK-OV-3

Structure (SMILES): Cc1cc(Cc2c(F)c(F)c(C(c3cc(C)no3)c3c(F)c(F)c(F)c(F)c3F)c(F)c2F)on1 (stereo unspecified)
- GI50 (786-0): > 100 µM (inactive)
- GI50 (A498): > 100 µM (inactive)
- GI50 (A549): > 100 µM (inactive)
- GI50 (ACHN): > 100 µM (inactive)
- GI50 (BT-549): > 100 µM (inactive)
- GI50 (CAKI-1): > 72.8 µM (inactive)
- GI50 (CCRF-CEM): 62.7 µM (inactive)
- GI50 (COLO 205): > 100 µM (inactive)
- GI50 (DU-145): > 100 µM (inactive)
- GI50 (EKVX): > 100 µM (inactive)
- GI50 (HCC 2998): > 27.9 µM (inactive)
- GI50 (HCT-116): 18.3 µM (inactive)
- GI50 (HCT-15): 14.2 µM
- GI50 (HL-60): 5.13 µM (inactive)
- GI50 (HOP-62): > 100 µM (inactive)
- GI50 (HOP-92): > 100 µM (inactive)
- GI50 (HT-29): 6.08 µM (inactive)
- GI50 (IGROV-1): > 100 µM (inactive)
- GI50 (K562): 9.46 µM (inactive)
- GI50 (KM12): 19.5 µM (inactive)
- GI50 (LOX IMVI): > 46.1 µM (inactive)
- GI50 (M14): 24 µM (inactive)
- GI50 (MCF7): 6.76 µM (inactive)
- GI50 (MDA-MB-231): > 100 µM (inactive)
- GI50 (MDA-MB-435): 3.04 µM (inactive)
- GI50 (MDA-N): 3.04 µM (inactive)
- GI50 (MOLT-4): 17.1 µM (inactive)
- GI50 (Malme-3M): > 100 µM (inactive)
- GI50 (NCI-H226): > 100 µM (inactive)
- GI50 (NCI-H23): > 100 µM (inactive)
- GI50 (NCI-H460): 6.41 µM (inactive)
- GI50 (NCI-H522): 23.9 µM (inactive)
- GI50 (NCI/ADR-RES): > 28.2 µM (inactive)
- GI50 (OVCAR-3): > 27.4 µM (inactive)
- GI50 (OVCAR-4): > 100 µM (inactive)
- GI50 (OVCAR-5): > 100 µM (inactive)
- GI50 (OVCAR-8): > 100 µM (inactive)
- GI50 (PC-3): 69.5 µM (inactive)
- GI50 (RPMI-8226): 33.5 µM (inactive)
- GI50 (RXF 393): 2.34 µM (inactive)
- GI50 (SF-268): 78.3 µM (inactive)
- GI50 (SF-295): 5.41 µM (inactive)
- GI50 (SF-539): 17.9 µM (inactive)
- GI50 (SK-MEL-28): > 38.8 µM (inactive)
- GI50 (SK-MEL-2): 9.71 µM (inactive)
- GI50 (SK-MEL-5): 7.16 µM (inactive)
- GI50 (SN12C): > 50.7 µM (inactive)
- GI50 (SNB-19): > 100 µM (inactive)
- GI50 (SNB-75): 86.7 µM (inactive)
- GI50 (SR): > 25.7 µM (inactive)
- GI50 (SW-620): 8.02 µM (inactive)
- GI50 (T47D): > 100 µM (inactive)
- GI50 (TK-10): > 100 µM (inactive)
- GI50 (U-251): 18.4 µM (inactive)
- GI50 (UACC-257): 5.32 µM (inactive)
- GI50 (UACC-62): > 27 µM (inactive)
- GI50 (UO-31): > 100 µM (inactive)

Structure (SMILES): N#Cc1c2c(c(Nc3cccc(C(F)(F)F)c3)n3c1nc1ccccc13)CCCC2
- GI50 (786-0): 13.1 µM (inactive)
- GI50 (A498): 26.8 µM (inactive)
- GI50 (ACHN): 27.3 µM (inactive)
- GI50 (BT-549): 30.1 µM (inactive)
- GI50 (CAKI-1): 22.5 µM (inactive)
- GI50 (COLO 205): > 100 µM (inactive)
- GI50 (DU-145): 21.3 µM (inactive)
- GI50 (EKVX): 20.8 µM (inactive)
- GI50 (HCT-116): 22.3 µM (inactive)
- GI50 (HCT-15): 39.2 µM
- GI50 (HOP-62): 16 µM (inactive)
- GI50 (HOP-92): 3.99 µM (inactive)
- GI50 (HT-29): 16.2 µM (inactive)
- GI50 (KM12): 81.3 µM (inactive)
- GI50 (LOX IMVI): 14.8 µM (inactive)
- GI50 (MDA-MB-231): 17.5 µM (inactive)
- GI50 (MDA-MB-435): 28.4 µM (inactive)
- GI50 (MDA-N): 15 µM (inactive)
- GI50 (MOLT-4): 15.2 µM (inactive)
- GI50 (Malme-3M): 21.3 µM (inactive)
- GI50 (NCI-H226): 26.5 µM (inactive)
- GI50 (NCI-H23): 20.9 µM (inactive)
- GI50 (NCI-H460): 23.1 µM (inactive)
- GI50 (NCI-H522): 1.47 µM (inactive)
- GI50 (NCI/ADR-RES): 14.8 µM (inactive)
- GI50 (OVCAR-3): 14.6 µM (inactive)
- GI50 (OVCAR-4): 13.9 µM (inactive)
- GI50 (OVCAR-5): 18.9 µM (inactive)
- GI50 (OVCAR-8): 15.1 µM (inactive)
- GI50 (RPMI-8226): 19.4 µM (inactive)
- GI50 (RXF 393): 22.7 µM (inactive)
- GI50 (SF-268): 15.2 µM (inactive)
- GI50 (SF-295): 21.8 µM (inactive)
- GI50 (SF-539): 16.3 µM (inactive)
- GI50 (SK-MEL-28): 18.2 µM (inactive)
- GI50 (SK-MEL-5): 60.8 µM (inactive)
- GI50 (SK-OV-3): 17.1 µM (inactive)
- GI50 (SN12C): 22.8 µM (inactive)
- GI50 (SNB-75): 10.6 µM (inactive)
- GI50 (SW-620): 39.1 µM (inactive)
- GI50 (T47D): > 100 µM (inactive)
- GI50 (TK-10): 16.3 µM (inactive)
- GI50 (U-251): 11.5 µM (inactive)
- GI50 (UACC-257): 22.2 µM (inactive)
